Measured values published in US12522598B2, “3-(2-(heteroaryl)-pyridin-4-yl)-5-(trifluoromethyl)-1,2,4-oxadiazole derivatives as HDAC6 inhibitors” (ORYZON GENOMICS, S.A., priority 2019, dated 2026).
Where a name gives a salt, the structure may show the parent alone.

Biological target: T1, HDAC6 (Homo sapiens, UniProt Q9UBN7)
T1 construct: purchased BPS Bioscience 50006
T1 sequence (Q9UBN7 1-1215): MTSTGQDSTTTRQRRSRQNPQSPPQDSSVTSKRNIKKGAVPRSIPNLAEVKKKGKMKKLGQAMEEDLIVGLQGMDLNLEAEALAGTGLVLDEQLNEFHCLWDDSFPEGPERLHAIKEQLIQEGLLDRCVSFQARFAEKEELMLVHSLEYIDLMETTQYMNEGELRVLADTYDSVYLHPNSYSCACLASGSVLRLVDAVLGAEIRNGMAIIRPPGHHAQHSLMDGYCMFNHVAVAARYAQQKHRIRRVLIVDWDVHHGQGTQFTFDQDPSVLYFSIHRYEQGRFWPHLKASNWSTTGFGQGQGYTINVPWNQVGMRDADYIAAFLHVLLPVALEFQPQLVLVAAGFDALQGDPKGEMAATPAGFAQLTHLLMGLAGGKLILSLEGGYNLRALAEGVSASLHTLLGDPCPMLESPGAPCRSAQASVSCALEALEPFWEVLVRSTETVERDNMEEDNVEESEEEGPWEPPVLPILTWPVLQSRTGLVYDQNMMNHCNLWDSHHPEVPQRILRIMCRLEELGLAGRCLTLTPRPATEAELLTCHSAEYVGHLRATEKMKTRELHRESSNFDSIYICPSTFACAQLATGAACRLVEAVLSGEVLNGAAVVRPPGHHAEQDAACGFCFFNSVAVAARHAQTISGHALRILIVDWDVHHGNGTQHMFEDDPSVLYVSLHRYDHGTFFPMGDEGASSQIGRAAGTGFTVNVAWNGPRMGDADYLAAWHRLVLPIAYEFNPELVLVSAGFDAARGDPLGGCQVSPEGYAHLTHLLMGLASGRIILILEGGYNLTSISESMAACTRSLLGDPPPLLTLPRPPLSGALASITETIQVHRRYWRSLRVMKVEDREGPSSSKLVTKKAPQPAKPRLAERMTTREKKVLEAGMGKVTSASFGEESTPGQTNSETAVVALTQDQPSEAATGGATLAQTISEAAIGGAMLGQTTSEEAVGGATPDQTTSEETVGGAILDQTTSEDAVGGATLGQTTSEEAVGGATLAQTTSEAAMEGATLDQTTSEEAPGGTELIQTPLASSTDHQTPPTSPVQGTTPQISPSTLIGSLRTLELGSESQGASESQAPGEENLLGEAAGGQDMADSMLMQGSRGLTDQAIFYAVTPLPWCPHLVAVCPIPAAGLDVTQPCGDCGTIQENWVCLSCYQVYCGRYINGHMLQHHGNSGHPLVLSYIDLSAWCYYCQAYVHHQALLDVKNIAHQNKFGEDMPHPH
Assay: HDAC6 enzyme inhibition assay (fluorimetric)
Format: biochemical
Settings: 3 hours preincubation with enzyme, fraction of positive control; for inhibition at 0.1 µM / HDAC6 % inh @ 0.1 μM: 0.1 μM test compound; for inhibition at 0.1 µM: read-out: HDAC6 % inh @ 0.1 μM; for inhibition at 0.3 µM / HDAC6 % inh @ 0.3 μM: 0.3 μM test compound; for inhibition at 0.3 µM: read-out: HDAC6 % inh @ 0.3 μM; for inhibition at 1 µM: read-out: HDAC6 % inh @ 1 μM
Protocol: A fluorimetric assay was used to determine the biochemical activity of the inhibitors on HDAC6 in 96-Well Half Area Black Microplates (Corning #3686)+TopSeal-A Black Sealing Film (Perkin Elmer #6050173). Test compounds were dissolved in DMSO. Half-log serial dilutions of test compounds were prepared in DMSO and then diluted 1:10 in assay buffer (BPS Bioscience #50031).
2.5 μL of enzyme (BPS Bioscience #50006) was incubated with 2.5 μL of test compounds for 3 hours in assay buffer with 0.1 mg/mL Bovine Serum Albumin (Sigma-Aldrich #A7030) at 21° C. in 22.5 μL total volume. The enzymatic reaction was started with the addition of 2.5 μL of a fluorogenic acetylated peptide substrate (BPS Bioscience #50037). The final concentration of enzyme and substrate in the reaction were 8.8 nM and 9 μM, respectively. After 45 minutes of incubation at 37° C., the addition of 25 μL of a development solution (BPS
Bioscience #50030) releases a fluorophore whose amount is proportional to the amount of the deacetylated product. Fluorescence intensity was measured after 15 minutes incubation at 21° C. with a Tecan Infinite F200 microplate reader (excitation 360 nm-emission 460 nm).
The negative control (background) was represented by the reaction mix in the absence of the enzyme (with 0.1% DMSO), while the positive control of deacetylase activity was obtained in the absence of test compounds (with 0.1% DMSO) after background subtraction. Percentage of inhibition was calculated as a fraction of the positive control.

Row | SMILES | inhibition at 0.1 µM [%] | inhibition at 0.3 µM [%] | inhibition at 1 µM (1 μM test compound) [%] | HDAC6 % inh @ 0.1 μM [%] | HDAC6 % inh @ 0.3 μM [%] | HDAC6 % inh @ 1 μM (1 μM test compound) [%]
1 | FC(F)(F)c1nc(-c2ccnc(-c3nn(CC4CCOCC4)c4cccnc34)c2)no1 [Example 1f, 3-(2-(1-((Tetrahydro-2H-pyran-4-yl)methyl)-1H-pyrazolo[4,3-b]pyridin-3-yl)pyridin-4-yl)-5-(trifluoromethyl)-1,2,4-oxadiazole] | 54 | 81 | 94 | – | – | –
2 | CN(CCO)C(=O)c1cc2cc(-c3cc(-c4noc(C(F)(F)F)n4)ccn3)ncc2n1C [Example 1b, N-(2-Hydroxyethyl)-N,1-dimethyl-5-(4-(5-(trifluoromethyl)-1,2,4-oxadiazol-3-yl)pyridin-2-yl)-1H-pyrrolo[2,3-c]pyridine-2-carboxamide] | 72 | 88 | 95 | – | – | –
3 | CN(C)CCCN(C)C(=O)c1cc2cc(-c3cc(-c4noc(C(F)(F)F)n4)ccn3)ncc2n1C [Example 1a, N-(3-(Dimethylamino)propyl)-N,1-dimethyl-5-(4-(5-(trifluoromethyl)-1,2,4-oxadiazol-3-yl)pyridin-2-yl)-1H-pyrrolo[2,3-c]pyridine-2-carboxamide] | 74 | 91 | – | – | – | –
4 | COCCn1nc(-c2cc(-c3noc(C(F)(F)F)n3)ccn2)c2nccnc21 [Example 1g, 3-(2-(1-(2-Methoxyethyl)-1H-pyrazolo[3,4-b]pyrazin-3-yl)pyridin-4-yl)-5-(trifluoromethyl)-1,2,4-oxadiazole] | 28 | 56 | 80 | – | – | –
5 | Cn1c(C(=O)N2CC[C@H](O)C2)cc2cc(-c3cc(-c4noc(C(F)(F)F)n4)ccn3)ncc21 [Example 2h, (S)-(3-Hydroxypyrrolidin-1-yl)(1-methyl-5-(4-(5-(trifluoromethyl)-1,2,4-oxadiazol-3-yl)pyridin-2-yl)-1H-pyrrolo[2,3-c]pyridin-2-yl)methanone hydrochloride] | 65 | 80 | 94 | – | – | –
6 | Cn1c(C(=O)N2CCOCC2)cc2cc(-c3cc(-c4noc(C(F)(F)F)n4)ccn3)ncc21 [Example 3, (1-Methyl-5-(4-(5-(trifluoromethyl)-1,2,4-oxadiazol-3-yl)pyridin-2yl)-1H-pyrrolo[2,3-c]pyridin-2-yl)(morpholino)methanone mesylate] | 59 | 84 | 93 | – | – | –
7 | Cn1c(C(=O)N(CCO)CCO)cc2cc(-c3cc(-c4noc(C(F)(F)F)n4)ccn3)ncc21 [Example 1d, N,N-Bis(2-hydroxyethyl)-1-methyl-5-(4-(5-(trifluoromethyl)-1,2,4-oxadiazol-3-yl)pyridin-2-yl)-1H-pyrrolo[2,3-c]pyridine-2-carboxamide] | 79 | 91 | 96 | – | – | –
8 | CN(CC1CC1)C(=O)c1cc2cc(-c3cc(-c4noc(C(F)(F)F)n4)ccn3)ncc2n1C [Example 2, N-(Cyclopropylmethyl)-N,1-dimethyl-5-(4-(5-(trifluoromethyl)-1,2,4-oxadiazol-3-yl)pyridin-2-yl)-1H-pyrrolo[2,3-c]pyridine-2-carboxamide hydrochloride] | 75 | 92 | 96 | – | – | –
9 | CN1CCC(CN(C)C(=O)c2cc3cc(-c4cc(-c5noc(C(F)(F)F)n5)ccn4)ncc3n2C)CC1 [Example 1c, N,1-Dimethyl-N-((l-methylpiperidin-4-yl)methyl)-5-(4-(5-(trifluoromethyl)-1,2,4-oxadiazol-3-yl)pyridin-2-yl)-1H-pyrrolo[2,3-c]pyridine-2-carboxamide] | 85 | 94 | 98 | – | – | –
10 | CC1(C)C2CCC1(CS(=O)(=O)O)C(=O)C2.Cn1c(C(=O)N2CC[C@H](O)C2)cc2cc(-c3cc(-c4noc(C(F)(F)F)n4)ccn3)ncc21 [Example 6, (S)-(3-Hydroxypyrrolidin-1-yl)(1-methyl-5-(4-(5-(trifluoromethyl)-1,2,4-oxadiazol-3-yl)pyridin-2-yl)-1H-pyrrolo[2,3-c]pyridin-2-yl)methanone (+) Camphorsulfonate Salt] | – | – | – | 61 | 81 | 91
11 | COCCn1nc(-c2cc(-c3noc(C(F)(F)F)n3)ccn2)c2nccc(Cl)c21 [Example 5, 3-(2-(7-Chloro-1-(2-methoxyethyl)-1H-pyrazolo[4,3-b]pyridin-3-yl)pyridin-4-yl)-5-(trifluoromethyl)-1,2,4-oxadiazole] | 61 | 82 | 94 | – | – | –
12 | COCCCn1nc(-c2cc(-c3noc(C(F)(F)F)n3)ccn2)c2ncccc21 [Example 1e, 3-(2-(1-(3-Methoxypropyl)-1H-pyrazolo[4,3-b]pyridin-3-yl)pyridin-4-yl)-5-(trifluoromethyl)-1,2,4-oxadiazole] | 68 | 88 | 95 | – | – | –
13 | Cn1c(C(=O)N2CCOCC2)cc2cc(-c3cc(-c4noc(C(F)(F)F)n4)ccn3)ncc21 [Example 1, (1-Methyl-5-(4-(5-(trifluoromethyl)-1,2,4-oxadiazol-3-yl)pyridin-2-yl)-1H-pyrrolo[2,3-c]pyridin-2-yl)(morpholino)methanone] | – | – | – | 59 | 87 | –

Now from value to compound, other results behind:

Row | inhibition at 0.1 µM [%] | inhibition at 0.3 µM [%] | inhibition at 1 µM (1 μM test compound) [%] | SMILES | HDAC6 % inh @ 0.1 μM [%] | HDAC6 % inh @ 0.3 μM [%] | HDAC6 % inh @ 1 μM (1 μM test compound) [%]
14 | 64 | 86 | 96 | C[C@H]1COCCN1C(=O)c1cc2cc(-c3cc(-c4noc(C(F)(F)F)n4)ccn3)ncc2n1C [Example 2d, (S)-(1-Methyl-5-(4-(5-(trifluoromethyl)-1,2,4-oxadiazol-3-yl)pyridin-2-yl)-1H-pyrrolo[2,3-c]pyridin-2-yl)(3-methylmorpholino)methanone hydrochloride] | – | – | –
15 | 78 | 92 | 97 | Cn1c(C(=O)N2CCC(O)C2)cc2cc(-c3cc(-c4noc(C(F)(F)F)n4)ccn3)ncc21 (stereo not shown) [Example 2e, (3-Hydroxypyrrolidin-1-yl)(1-methyl-5-(4-(5-(trifluoromethyl)-1,2,4-oxadiazol-3-yl)pyridin-2-yl)-1H-pyrrolo[2,3-c]pyridin-2-yl)methanone hydrochloride] | – | – | –
16 | 71 | 91 | 97 | COCCN(CCOC)C(=O)c1cc2cc(-c3cc(-c4noc(C(F)(F)F)n4)ccn3)ncc2n1C [Example 2c, N,N-Bis(2-methoxyethyl)-1-methyl-5-(4-(5-(trifluoromethyl)-1,2,4-oxadiazol-3-yl)pyridin-2-yl)-1H-pyrrolo[2,3-c]pyridine-2-carboxamide hydrochloride] | – | – | –
17 | 89 | 95 | 96 | CCN(C)C(=O)c1cc2cc(-c3cc(-c4noc(C(F)(F)F)n4)ccn3)ncc2n1C [Example 2b, N-Ethyl-N,1-dimethyl-5-(4-(5-(trifluoromethyl)-1,2,4-oxadiazol-3-yl)pyridin-2-yl)-1H-pyrrolo[2,3-c]pyridine-2-carboxamide hydrochloride] | – | – | –
